Reference: ChEMBL document CHEMBL3244013, “Central nervous system activity of a novel class of annelated 1,4-benzodiazepines, aminomethylene-2,4-dihydro-1H-imidazo[1,2-a][1,4]benzodiazepin-1-ones” (J Med Chem, 1977)

Key:
Mus musculus [1] = experiment: Potentiation of hexobarbital-induced sedative effect in po dosed CD-1 mouse assessed as loss of righting reflex after 30 secs; type: functional; details: CD-1, po
Mus musculus [2] = experiment: Anticonvulsant activity in po dosed CD-1 mouse assessed as protection against maximal electroshock-induced convulsion; type: functional; details: CD-1, po
Mus musculus [3] = experiment: Acute toxicity in po dosed CD-1 mouse assessed as mortality after 24 hrs; type: organism-based; details: in vivo
Mus musculus [4] = experiment: Anticonvulsant activity in po dosed CD-1 mouse assessed as protection against strychnine-induced convulsion after 30 mins; type: functional; details: CD-1, po, 0.5 h
Mus musculus [5] = experiment: Potentiation of chlorprothixene-induced sedative effect in po dosed CD-1 mouse assessed as loss of righting reflex; type: functional; details: CD-1, po
Mus musculus [6] = experiment: Induction of muscle relaxation in po dosed CD-1 mouse after 30 mins by rotary drum test; type: functional; details: CD-1, po, 0.5 h
Mus musculus [7] = experiment: Antianxiety activity in po dosed CD-1 mouse assessed as inhibition of foot shock-induced aggression after 30 mins relative to control; type: functional; details: CD-1, po, 0.5 h
Mus musculus [8] = experiment: Anticonvulsant activity in po dosed CD-1 mouse assessed as protection against pentylenetetrazole-induced convulsion; type: functional; details: CD-1, po

Structure (SMILES) | ED50 (Mus musculus [1]) [mg/kg] | ED50 (Mus musculus [2]) [mg/kg] | ED50 (Mus musculus [3]) [mg/kg] | ED50 (Mus musculus [4]) [mg/kg] | ED50 (Mus musculus [5]) [mg/kg] | ED50 (Mus musculus [6]) [mg/kg] | ED50 (Mus musculus [7]) [mg/kg] | ED50 (Mus musculus [8]) [mg/kg]
CN1CCN(/C=C2\N=C3CN=C(c4ccccc4F)c4cc(Cl)ccc4N3C2=O)CC1 | 0.21 | 0.27 | > 1000 | 1.25 | 1.35 | 2.6 | 0.34 | 0.115
CN1CCN(/C=C2\N=C3CN=C(c4ccccc4)c4cc([N+](=O)[O-])ccc4N3C2=O)CC1 | 3.6 | 4.2 | > 1000 | 6.6 | 4.5 | 8.6 | 2.2 | 0.92
CN1CCN(/C=C2\N=C3CN=C(c4ccccc4Cl)c4cc(Cl)ccc4N3C2=O)CC1 | 0.074 | 2.1 | > 1000 | 1.8 | 1.6 | 0.78 | 0.2 | 0.165
CN1CCN(/C=C2\N=C3CN=C(c4ccccc4F)c4cc([N+](=O)[O-])ccc4N3C2=O)CC1 | 0.8 | 1.2 | > 1000 | 0.46 | 1.6 | 1.5 | 0.26 | 0.13
CCN1CCN(/C=C2\N=C3CN=C(c4ccccc4Cl)c4cc(Cl)ccc4N3C2=O)CC1 | 2.5 | 2.2 | > 1000 | 2.3 | 1.2 | 0.56 | 0.5 | 0.087
CCN1CCN(/C=C2\N=C3CN=C(c4ccccc4F)c4cc(Cl)ccc4N3C2=O)CC1 | 2.8 | 1.55 | > 1000 | 1.6 | 2.35 | 0.7 | 0.48 | 0.155
CCN1CCN(/C=C2\N=C3CN=C(c4ccccc4Cl)c4cc([N+](=O)[O-])ccc4N3C2=O)CC1 | 0.8 | 2.8 | > 1000 | 2.8 | 0.99 | 0.46 | 0.34 | 0.15
CCN1CCN(/C=C2\N=C3CN=C(c4ccccc4F)c4cc([N+](=O)[O-])ccc4N3C2=O)CC1 | 0.72 | 2.6 | > 1000 | 3.75 | 4 | 0.37 | 0.64 | 0.18
C/C(=C1/N=C2CN=C(c3ccccc3)c3cc(Cl)ccc3N2C1=O)N1CCNCC1 | 5.2 | 14 | > 1000 | > 50 | > 50 | > 50 | > 20 | 4
CN1CCN(/C=C2\N=C3CN=C(c4ccccc4Cl)c4cc([N+](=O)[O-])ccc4N3C2=O)CC1 [LOPRAZOLAM] | 1 | 0.76 | > 1000 | 0.41 | 1.1 | 2.2 | 0.42 | 0.028
